The text below walks through data of US7018981B2, “Cyclic motilin receptor antagonists” (Chugai Seiyaku Kabushiki Kaisha, priority 2000, dated 2006).

Structures are written as SMILES. Where a SMILES comes first, the peptide text is derived from it. Bridges are numbered along the chain shown (N, C = ends). [ ]: non-standard residue; d: D form. NMeTyr(3-tBu) = CN[C@@H](Cc1ccc(O)c(C(C)(C)C)c1)C(=O)O; Tyr(3-tBu) = CC(C)(C)c1cc(C[CH](N)C(=O)O)ccc1O; Phe(4-F) = N[C@@H](Cc1ccc(F)cc1)C(=O)O; NMeLys(Me) = CNCCCC[C@H](NC)C(=O)O; NMeK = CN[C@@H](CCCCN)C(=O)O; GABA = NCCCC(=O)O; βAla = NCCC(=O)O

One assay concerns the target T1, motilin receptors (Oryctolagus cuniculus, UniProt G1T803).
T1 construct: A protein solution was prepared by homogenizing the duodenum isolated from a killed rabbit; from tissue; host or cells: rabbit duodenum, mucosa stripped, homogenate
Put plainly: Motilin receptor binding test (125I motilin, rabbit duodenum protein solution). As to conditions: concentration inhibiting 50% of specific binding of 25 pM 125I motilin; rabbit duodenum homogenate, 2 hours at 25° C. Here is the method: Motilin receptor binding activities of compounds of the present invention were tested as follows [Vantrappen et al., Regul.
A protein solution was prepared by homogenizing the duodenum isolated from a killed rabbit in 50 mM Tris after stripping the mucosa. […] The difference between the radioactivity of the protein solution incubated alone and the radioactivity of the protein solution incubated with a large excess of motilin (10^−7 M) was recorded as specific binding of motilin to motilin receptors.

In assay [1] the test system is motilin-induced contraction of a sample of the longitudinal muscle of the duodenum. Put plainly: Contraction inhibition test: motilin-induced contraction of rabbit longitudinal duodenal muscle. The assay is classed as cell-based. As to conditions: Oryctolagus cuniculus; concentration-dependent contraction induced by motilin; rabbit duodenal specimen in Krebs solution at 28° C.; read-out: Contraction inhibition test pA2 (converted). Here is the method: The effect of compounds of the present invention on motilin-induced contraction of a sample of the longitudinal muscle of the duodenum extracted from a rabbit was tested as follows.
A duodenal specimen (5×15 mm) extracted from a killed rabbit was suspended in the direction of the longitudinal muscle in an incubator at 28° C. filled with Krebs solution (10 ml organ bath). A mixed gas (95% O2, 5% CO2) was continuously passed through the Krebs solution and the contraction of the duodenal specimen was isotonically recorded (under a load of 1 g) via an isotonic transducer (ME-3407, ME Commercial, Tokyo, Japan). The extent of contraction of the duodenal specimen was expressed as a percentage to the contraction induced by acetylcholine at a concentration of 10^−4 M.
The effect of the compounds synthesized in Examples 1–8 and 10 on the concentration-dependent contraction induced by motilin added into the incubator was determined to calculate pA2 (see “Drug receptors” edited by Takayanagi, published by Nanzando). As a comparative example, the results of the compound of formula (5) are also shown.

T1 sequence (G1T803 1-400): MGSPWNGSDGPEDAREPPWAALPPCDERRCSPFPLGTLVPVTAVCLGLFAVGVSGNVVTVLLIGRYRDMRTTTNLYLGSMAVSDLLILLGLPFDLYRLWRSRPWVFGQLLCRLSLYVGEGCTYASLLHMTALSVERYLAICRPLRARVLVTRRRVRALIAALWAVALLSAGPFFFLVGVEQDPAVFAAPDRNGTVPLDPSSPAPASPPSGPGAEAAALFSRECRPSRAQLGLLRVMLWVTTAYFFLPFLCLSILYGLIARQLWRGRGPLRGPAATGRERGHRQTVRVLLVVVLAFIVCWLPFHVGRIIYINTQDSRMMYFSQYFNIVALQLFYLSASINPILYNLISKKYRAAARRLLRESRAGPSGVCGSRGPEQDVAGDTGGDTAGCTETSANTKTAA

In the case of `CN(C(=O)[C@@H](N)Cc1ccc(F)cc1)[C@H]1CCCCNC(=O)CCCNC(=O)[C@H](Cc2ccc(O)c(C(C)(C)C)c2)NC1=O` [Example 6, (2S-(2S,14S))-2-amino-N-(2-(3-tert-butyl-4-hydroxyphenylmethyl)-1,4,9-triaza-3,8,15-trioxocyclopentadec-14-yl)-3-(4-fluorophenyl)-N-methylpropionamide] (H-[Phe(4-F)][NMeK][Tyr(3-tBu)][GABA]; lactam 2-C), the 50% inhibitory concentration (IC50) on motilin receptors turned out to be 0.87 nM. The Kb in assay [1] was 3.16 nM.
Regarding `CN(C(=O)[C@@H](N)Cc1ccc(F)cc1)[C@H]1CCCCNC(=O)CNC(=O)[C@H](Cc2ccc(O)c(C(C)(C)C)c2)NC1=O` [Example 3, (2S-(2S,12S))-2-amino-N-(2-(3-tert-butyl-4-hydroxyphenylmethyl)-1,4,8-triaza-3,7,13-trioxocyclotridec-12-yl)-3-(4-fluorophenyl)-N-methylpropionamide] (H-[Phe(4-F)][NMeK][Tyr(3-tBu)]G; lactam 2-C), at motilin receptors, the IC50 stood at 0.52 nM. In addition, the Kb in assay [1] was 6.31 nM.
Consider `CN(C(=O)[C@@H](N)Cc1ccc(F)cc1)[C@H]1CCCCNC(=O)CCNC(=O)[C@H](Cc2ccc(O)c(C(C)(C)C)c2)NC1=O` [Example 1, (2S-(2S,13S))-2-amino-N-(2-(3-tert-butyl-4-hydroxyphenylmethyl)-1,4,8-triaza-3,7,14-trioxocyclotetradec-13-yl)-3-(4-fluorophenyl)-N-methylpropionamide] (H-[Phe(4-F)][NMeK][Tyr(3-tBu)][βAla]; lactam 2-C), for which the IC50 on motilin receptors was 1.2 nM. Besides, the Kb in assay [1] is 1 nM.
`CN(C(=O)[C@@H](N)Cc1ccccc1)[C@H]1CCCCNC(=O)CCNC(=O)[C@H](Cc2ccc(O)c(C(C)(C)C)c2)NC1=O` [Example 10, (2S-(2S,13S))-2-amino-N-(2-(3-tert-butyl-4-hydroxyphenylmethyl)-1,4,8-triaza-3,7,14-trioxocyclotetradec-13-yl)-3-phenyl-N-methylpropionamide] (H-F[NMeK][Tyr(3-tBu)][βAla]; lactam 2-C) had an IC50 on motilin receptors of 2.2 nM. Besides, in assay [1], the Kb was 12.6 nM.
As for `CC(=O)N1CCCC[C@H](N(C)C(=O)[C@@H](N)Cc2ccc(F)cc2)C(=O)N[C@@H](Cc2ccc(O)c(C(C)(C)C)c2)C(=O)NCCC1` [Example 8, (2S-(2S.13S))-N-(8-acetyl-2-(3-tert-butyl-4-hydroxyphenylmethyl)-N-methyl-1,4,8-triaza-3,14-dioxocyclotetradec-13-yl)-2-amino-3-(4-fluorophenyl)propionamide], on motilin receptors, the IC50 is 0.84 nM. In addition, the Kb in assay [1] was 6.31 nM.
`CN1CCC(=O)NCCCC[C@H](N(C)C(=O)[C@@H](N)Cc2ccc(F)cc2)C(=O)N[C@@H](Cc2ccc(O)c(C(C)(C)C)c2)C1=O` [Example 4, (2S-(2S,13S))-2-amino-N-(2-(3-tert-butyl-4-hydroxyphenylmethyl)-4-methyl-1,4,8-triaza-3,7,14-trioxocyclotetradec-13-yl)-3-(4-fluorophenyl)-N-methylpropionamide]: the IC50 at motilin receptors was 0.78 nM. The Kb in assay [1] was 1 nM.
On the same counts, the results for `CC(C)(C)c1cc(CC2NC(=O)C(NC(=O)C(N)Cc3ccccc3)CCCCNC(=O)CCNC2=O)ccc1O` (centres unmarked) [Comparative example, reference compound] (H-FK[Tyr(3-tBu)][βAla]; lactam 2-C; configuration not given here) are 10 nM and 63.1 nM.
On the same counts, the results for `CN1CCCC[C@H](N(C)C(=O)[C@@H](N)Cc2ccc(F)cc2)C(=O)N[C@@H](Cc2ccc(O)c(C(C)(C)C)c2)C(=O)NCCC1=O` [Example 5, (2S-(2S,13S))-2-amino-N-(2-(3-tert-butyl-4-hydroxyphenylmethyl)-8-methyl-1,4,8-triaza-3,7,14-trioxocyclotetradec-13-yl)-3-(4-fluorophenyl)-N-methylpropionamide] (H-[Phe(4-F)][NMeLys(Me)][Tyr(3-tBu)][βAla]; lactam 2-C) are 1.4 nM and 0.126 nM.
On the same counts, the results for `CC(C)(C)c1cc(C[C@@H]2NC(=O)[C@@H](NC(=O)[C@@H](N)Cc3ccc(F)cc3)CCCCNC(=O)CCNC2=O)ccc1O` [Example 7, (2S,14S)-13-(2S-2-amino-3-(4-fluorophenyl)propylamino)-2-(3-tert-butyl-4-hydroxyphenylmethyl)-1,4,8-triaza-3,7,14-trioxocyclotetradecane] (H-[Phe(4-F)]K[Tyr(3-tBu)][βAla]; lactam 2-C) are 4.5 nM and 10 nM.
Consider `CN(C(=O)[C@@H](N)Cc1ccc(F)cc1)[C@H]1CCCCNC(=O)CCNC(=O)[C@H](Cc2ccc(O)c(C(C)(C)C)c2)N(C)C1=O` [Example 2, (2S-(2S.13S))-2-amino-N-(2-(3-tert-butyl-4-hydroxyphenylmethyl)-1-methyl-1,4,8-triaza-3,7,14-trioxocyclotetradec-13-yl)-3-(4-fluorophenyl)-N-methylpropionamide] (H-[Phe(4-F)][NMeK][NMeTyr(3-tBu)][βAla]; lactam 2-C), for which the IC50 at motilin receptors came out at 1.4 nM. For the same compound, the Kb in assay [1] was 1.26 nM.

Broadly, the IC50 is the point on the concentration scale where inhibition reaches its midpoint. Lower therefore signals greater potency in that assay.
